According to ChEMBL document CHEMBL1141752, “Koniamborine, the first pyrano[3,2-b]indole alkaloid and other secondary metabolites from Boronella koniambiensis” (J Nat Prod, 2005):

Tested on: L1210
Assay: Cytotoxicity against mouse L1210 cells
Format: functional, cell-based

SMILES | IC50
c1cc2c(cc1CC1COCC1Cc1ccc3c(c1)OCO3)OCO2 (stereo not drawn) | 72.1 µM
COc1ccc2c3occc(=O)c3n(C)c2c1 [KONIAMBORINE] | 38.2 µM
CC(C)=CCC/C(C)=C/COc1ccc2ccc(=O)oc2c1CC=C(C)C | 15.7 µM
